Here are results for 7 compounds from patent US20100317848A1, “PROCESS FOR THE SYNTHESIS OF DERIVATIVES OF 3-AMINO-TETRAHYDROFURAN-3-CARBOXYLIC ACID AND USE THEREOF AS MEDICAMENTS” (BOEHRINGER INGELHEIM INTERNATIONAL GMBH, priority 2006, published 2010).

SMILES strings stand for the structures. Values after ≈ are worked out from the molar mass of the structure shown. “Also recorded” adds a separate entry of the source.

One data set deals with T1, human factor Xa (Homo sapiens, UniProt P00742).
T1 construct: released from the colourless chromogenic substrate by human factor Xa; purchased Calbiochem
T1 sequence (P00742 235-488 limits assumed): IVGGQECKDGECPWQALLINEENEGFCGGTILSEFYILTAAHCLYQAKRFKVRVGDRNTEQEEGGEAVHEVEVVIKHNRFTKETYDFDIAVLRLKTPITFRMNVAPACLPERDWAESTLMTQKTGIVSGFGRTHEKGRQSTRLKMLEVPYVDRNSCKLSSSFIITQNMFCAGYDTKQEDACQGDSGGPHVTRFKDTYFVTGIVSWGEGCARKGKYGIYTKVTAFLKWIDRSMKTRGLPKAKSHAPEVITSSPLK
T1 sequence (P00742 41-179 partner limits assumed): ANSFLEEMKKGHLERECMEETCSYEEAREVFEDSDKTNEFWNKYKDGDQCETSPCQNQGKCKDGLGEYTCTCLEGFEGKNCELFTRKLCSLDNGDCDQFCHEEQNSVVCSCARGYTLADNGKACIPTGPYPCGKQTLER
Briefly: Inhibition of factor Xa, enzyme-kinetic measurement with chromogenic substrate. Format: biochemical. Particulars: FXa assay; (S)-form versus (R)-form at the tetrahydrofuran carbon. The protocol:
The compounds listed in the Experimental Section were investigated for their effect on the inhibition of factor Xa as follows:
Enzyme-kinetic measurement with chromogenic substrate. The quantity of p-nitroaniline (pNA) released from the colourless chromogenic substrate by human factor Xa is determined photometrically at 405 nm. It is proportional to the activity of the enzyme used. The inhibition of the enzyme activity by the test substance (in relation to the solvent control) is determined at various concentrations of test substance and from this the IC50 is calculated, as the concentration which inhibits the factor Xa used by 50%.
Tris(hydroxymethyl)-aminomethane buffer (100 mMol) and sodium chloride (150 mMol), pH 8.0 plus 1 mg/ml Human Albumin Fraction V, protease-free Factor Xa (Calbiochem), spec. activity: 217 IU/mg, final concentration: 7 IU/ml for each reaction mixture Substrate S 2765 (Chromogenix), final concentration: 0.3 mM/l (1 KM) for each reaction mixture Test substance: final concentration 100, 30, 10, 3, 1, 0.3, 0.1, 0.03, 0.01, 0.003, 0.001 μMol/l
10 μl of a 23.5-times concentrated starting solution of the test substance or solvent (control), 175 μl of TRIS/HSA buffer and 25 μl of a 65.8 U/L Factor Xa working solution are incubated for 10 minutes at 37° C. After the addition of 25 μl of S 2765 working solution (2.82 mMol/l) the sample is measured in a photometer (SpectraMax 250) at 405 nm for 600 seconds at 37° C.
1. Determining the maximum increase (deltaOD/minutes) over 21 measuring points. 2. Determining the % inhibition based on the solvent control. 3. Plotting a dosage/activity curve (% inhibition vs substance concentration). 4. Determining the IC50 by interpolating the X-value (substance concentration) of the dosage/activity curve at Y=50% inhibition.

The nature of data set [1]: Solubility in different aqueous media. Format: physicochemical. Particulars: for solubility: aqueous medium.
Data set [2] in a line: Intrinsic dissolution rate in aqueous media, rotating disc method. Format: physicochemical. Particulars: for dissolution rate: 37° C., 200 rpm. The protocol: The intrinsic dissolution rate was determined in aqueous media covering a range of pH 1.1-7.4 using the rotating disc method which maintains a constant surface area. 5 mg of drug substance was compressed to form a disc at 356.1 N for 60 s. These discs were mounted to specially designed sample holders which fit into a Sotax dissolution tester. The dissolution media (37° C.) were stirred at 200 rpm. Samples were automatically withdrawn every second minute from the dissolution vessel and assayed via UV spectrophotometry. The intrinsic dissolution rate expressed in μg/cm^2/min was calculated using the slope of the concentration versus time plot and from the linear portion of the slope of the dissolution curve, volume of dissolution medium (35 ml) and area (diameter: 2 mm) of the exposed disk.

Take `C[C@H]1CN(C)CCc2ccc(NC(=O)[C@]3(NC(=O)c4ccc(Cl)s4)CCOC3)cc21` [(3S)-3-[(5-chloro-thiophen-2-yl)-carbonylamino]-N-((5R)-3,5-dimethyl-2,3,4,5-tetrahydro-1H-benzo[d]azepin-7-yl)-tetrahydrofuran-3-carboxylic acid amide]: on human factor Xa, the “IC50 at an approximately x-fold lower plasma concentration compared to the (R)-enantiomer / corresponding (3R)-diastereoisomer” value is “approximately 10 fold”.
For `C[C@@H]1CN(C)CCc2ccc(NC(=O)[C@]3(NC(=O)c4ccc(Cl)s4)CCOC3)cc21` [(3S)-3-[(5-chloro-thiophen-2-yl)-carbonylamino]-N-((5S)-3,5-dimethyl-2,3,4,5-tetrahydro-1H-benzo[d]azepin-7-yl)-tetrahydrofuran-3-carboxylic acid amide], the “IC50 at an approximately x-fold lower plasma concentration compared to the (R)-enantiomer / corresponding (3R)-diastereoisomer” value at human factor Xa is recorded as “approximately 7 fold”.
Regarding `CN1CCc2ccc(NC(=O)[C@]3(NC(=O)c4ccc(Br)s4)CCOC3)cc2CC1` [(S)-3-[(5-bromo-thiophen-2-yl)-carbonylamino]-N-(3-methyl-2,3,4,5-tetrahydro-1H-benzo[d]azepin-7-yl)-tetrahydrofuran-3-carboxylic acid amide], on human factor Xa, the “IC50 at an approximately x-fold lower plasma concentration compared to the (R)-enantiomer / corresponding (3R)-diastereoisomer” value is reported as “approximately 9 fold”.
With `CN1CCc2ccc(NC(=O)[C@]3(NC(=O)c4ccc(Cl)s4)CCOC3)cc2CC1` [(S)-3-[(5-chloro-thiophen-2-yl)-carbonylamino]-N-(3-methyl-2,3,4,5-tetrahydro-1H-benzo[d]azepin-7-yl)-tetrahydrofuran-3-carboxylic acid amide], the solubility in words result in data set [1] (acidic media) was “excellent solubility; also recorded: high solubility”; in data set [1] (neutral and basic media), “reduced solubility”. The solubility is 46 µg/mL (≈ 0.106 mM) in data set [1] (aqueous buffer, medium: 0.01 N NaOH); above 10000 µg/mL in data set [1] (aqueous buffer, medium: pH 2.2); above 10000 µg/mL in data set [1] (aqueous buffer, medium: pH 4.0); above 10000 µg/mL in data set [1] (aqueous buffer, medium: pH 6.0); 1800 µg/mL (≈ 4.15 mM) in data set [1] (aqueous buffer, medium: pH 7.4); above 10000 µg/mL in data set [1] (simulated gastric fluid, medium: 0.1 N HCl). Also, the concentration in solution in data set [1] (medium: water) (solubility) was 280 µg/mL (≈ 0.645 mM). Besides, the “pH of the saturated solution” value came out at 11.8 in data set [1] (medium: 0.01 N NaOH); 1.0 in data set [1] (medium: 0.1 N HCl); 2.4 in data set [1] (medium: pH 2.2); 4.3 in data set [1] (medium: pH 4.0); 6.3 in data set [1] (medium: pH 6.0); 7.5 in data set [1] (medium: pH 7.4). Also, in data set [1] (medium: water), the “pH of the saturated solution” value is reported as 8.6. Moreover, on human factor Xa, the “IC50 at an approximately x-fold lower plasma concentration compared to the (R)-enantiomer / corresponding (3R)-diastereoisomer” value is “approximately 8 fold”. Also, the “dissolution rate in words” value was “acceptable dissolution rates” in data set [2] (pH 7.4) and “very fast dissolution rates” in data set [2] (up to pH 6.0). Also, the dissolution rate in data set [2] (pH of aqueous medium 1.1) came to 8220 μg/cm^2/min; in data set [2] (pH of aqueous medium 2.3), 4520 μg/cm^2/min; in data set [2] (pH of aqueous medium 3.2), 4000 μg/cm^2/min; in data set [2] (pH of aqueous medium 4.1), 3110 μg/cm^2/min; in data set [2] (pH of aqueous medium 5.1) it was 4015 μg/cm^2/min; in data set [2] (pH of aqueous medium 6.0), 4140 μg/cm^2/min. The same compound yielded a dissolution rate in data set [2] (pH of aqueous medium 7.4) of 240 μg/cm^2/min.
Take `Cc1cc(NC(=O)[C@]2(NC(=O)c3ccc(Br)s3)CCOC2)ccc1N1CCOCCC1=O` [(S)-5-bromo-thiophene-2-carboxylic acid-N-{3-[3-methyl-4-(5-oxo-[1,4]oxazepan-4-yl)-phenylcarbamoyl]-tetrahydrofuran-3-yl}-amide]: the “IC50 at an approximately x-fold lower plasma concentration compared to the (R)-enantiomer / corresponding (3R)-diastereoisomer” value against human factor Xa is “approximately 16 fold”.
The same measure, in the same setting: with `Cc1cc(NC(=O)[C@]2(NC(=O)c3ccc(Cl)s3)CCOC2)ccc1N1CCOCC/C1=N\C#N` [(S)-5-chloro-thiophene-2-carboxylic acid-N-{3-[3-methyl-4-(5-cyanimin-[1.4]oxazepan-4-yl)-phenylcarbamoyl]-tetrahydrofuran-3-yl}-amide] the entry was “approximately 17 fold”.
`N#C/N=C1\CCOCCN1c1ccc(NC(=O)[C@]2(NC(=O)c3ccc(Cl)s3)CCOC2)cc1` [(S)-5-chloro-thiophene-2-carboxylic acid-N-{3-[4-(5-cyanimin-[1.4]oxazepan-4-yl)-phenylcarbamoyl]-tetrahydrofuran-3-yl}-amide]: the “IC50 at an approximately x-fold lower plasma concentration compared to the (R)-enantiomer / corresponding (3R)-diastereoisomer” value at human factor Xa is “approximately 15 fold”.
